Measured values as given in patent US20210369684A1 (MOUNT TAM THERAPEUTICS, INC., priority 2018, published 2021).

Test: Oral bioavailability
Details: in vivo
Excerpt: In order to measure bioavailability in vivo, a compound may be administered to a test animal (e.g. mouse or rat) both intraperitoneally (i.p.) or intravenously (i.v.) and orally (p.o.) and blood samples are taken at regular intervals to examine how the plasma concentration of the drug varies over time. The time course of plasma concentration over time can be used to calculate the absolute bioavailability of the compound as a percentage using standard models. An example of a typical protocol is described below. […] The time-course of plasma or whole blood concentrations can then be used to derive key parameters such as the area under the plasma or blood concentration-time curve (AUC-which is directly proportional to the total amount of unchanged drug that reaches the systemic circulation), the maximum (peak) plasma or blood drug concentration, the time at which maximum plasma or blood drug concentration occurs (peak time), additional factors which are used in the accurate determination of bioavailability include: the compound's terminal half-life, total body clearance, steady-state volume of distribution and F %. These parameters are then analyzed by non-compartmental or compartmental methods to give a calculated percentage bioavailability, for an example of this type of method see Gallant-[…] et al, 2000 and […] et al, 1998, and references therein.

- bioavailability: ~47%
SMILES: CO[C@H]1C[C@@H]2CC[C@@H](C)[C@@](O)(C2)C(=O)C(=O)N2CCCC[C@H]2C(=O)O[C@H]([C@H](C)C[C@H]2C[C@H]3C[C@@H]2C[C@@H]3O)CC(=O)[C@H](C)/C=C(\C)[C@@H](O)[C@@H](OC)C(=O)[C@H](C)C[C@H](C)/C=C/C=C/C=C/1C [Formula II, C37-[(1R,2S,4R,5S)-5-hyhroxybicyclo[2.2.1]heptane] rapamycin]
